The text below walks through data of patent US5580552A, “7-glycosyloxybenzopyran derivative and antiallergic agent containing the derivative as active ingredient” (priority 1994, dated 1996).

Experiment [1] deals with experimental asthma model (airway resistance). The experiment is described as follows: Effect on experimental asthma model in guinea pigs (airway resistance). It is filed as in vivo, guinea pigs (male hartley). The conditions noted are these: 50 mg/kg oral (TABLE 6); for inhibition in vivo at 50 mg/kg: Cavia porcellus, po, 0.5 h.
In experiment [2] the test system is homologous passive cutaneous anaphylaxis (PCA) reaction. The experiment in a line: Effect on homologous passive cutaneous anaphylaxis (PCA) reaction in rats. The settings on record: 50 mg/kg oral, 1 hour before challenge (TABLE 2); for inhibition in vivo at 50 mg/kg: Rattus norvegicus, po, 0.5 h. It counts as in vivo, rats (male wistar). The method in brief: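 Male Wistar rats sensitized intradermally with anti-DNP-As serum; 48 h later compound given orally at 50 mg/kg in 0.5% CMCNa. Challenge 1 h post-dose with i.v. TNP-As plus Evans Blue; extravasated dye measured at 30 min, inhibition versus vehicle group, n=5.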

Experiment [3] concerns contact dermatitis induced by picryl chloride. The experiment in a line: Effect on contact dermatitis induced by picryl chloride in mice. It counts as in vivo. The conditions noted are these: 50 mg/kg oral, 1 hour before and 16 hours after challenge, 24 hours after challenge; for inhibition in vivo at 50 mg/kg: Mus musculus, po, 24 h, read-out: Inhibition (%) against the increase of ear thickness. The method in brief:
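Mice sensitized on shaved abdomen with 7 mg picryl chloride in acetone, challenged 7 days later with 1% picryl chloride in olive oil on left ear. Compounds given orally at 50 mg/kg in 0.5% CMCNa 1 h before and 16 h after challenge. Ear thickness increase at 24 h vs pre-challenge; inhibition % relative to vehicle.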

Take `O=c1oc2cc(O[C@@H]3O[C@H](CO)[C@@H](O)[C@H](O)[C@H]3O)ccc2c(O)c1O` [compound 151]: in experiment [1], the “Inhibition (%) of the airway resistance” value is recorded as 49.7%. The “Inhibition (%) of PCA reaction” value in experiment [2] came to 45.4%. Moreover, the “Inhibition (%) against the increase of ear thickness” value in experiment [3] came out at 46.5%.
`CC(C)=CCC/C(C)=C/COc1c(O)c2ccc(O[C@H]3O[C@H](CO)[C@@H](O)[C@H](O)[C@@H]3O)cc2oc1=O` [compound 71]: the inhibition in vivo at 50 mg/kg is 63.2% in experiment [1], 49.8% in experiment [2] and 47.4% in experiment [3].
For `COc1c(O)c2ccc(O[C@@H]3O[C@H](CO)[C@H](O)[C@H](O)[C@H]3O)cc2oc1=O` [compound 9, 3-methoxy-4-hydroxy-7-(β-D-galactopyranosyloxy)-2H-1-benzopyran-2-one], the values for the inhibition in vivo at 50 mg/kg in experiment [1], in experiment [2] and in experiment [3] were 60.3%, 54.5% and 52.1%, respectively.
For `O=c1oc2cc(O[C@H]3O[C@H](CO)[C@@H](O)[C@H](O)[C@@H]3O)ccc2c(OCc2ccccc2)c1O` [compound 140], in that order: 45.1%, 40.4% and 40.1%.
In the same order, the values of `CCCCOc1c(O)c2ccc(O[C@@H]3O[C@H](CO)[C@H](O)[C@H](O)[C@H]3O)cc2oc1=O` [compound 86] are 73.2%, 56.4% and 59.4%.
In the same order, the values of `O=c1oc2cc(O[C@@H]3O[C@H](CO)[C@H](O)[C@H](O)[C@H]3O)ccc2c(O)c1OCc1ccccc1` [compound 96] are 58.2%, 50.1% and 48.9%.
With `CCCCOc1c(O)c2ccc(O[C@H]3O[C@H](CO)[C@@H](O)[C@H](O)[C@@H]3O)cc2oc1=O` [compound 62], the inhibition in vivo at 50 mg/kg in experiment [1] came out at 50.1%; in experiment [2], 53.2%; in experiment [3], 49.3%.
Regarding `O=c1oc2cc(O[C@@H]3O[C@H](CO)[C@@H](O)[C@H](O)[C@H]3O)ccc2c(O)c1O` [compound 108], the inhibition in vivo at 50 mg/kg in experiment [1] worked out at 50.1%; in experiment [2], 45.3%; in experiment [3] it was 42.4%.
In the same order, the values of `CC(C)=CCC/C(C)=C/COc1c(O)c(=O)oc2cc(O[C@H]3O[C@H](CO)[C@@H](O)[C@H](O)[C@@H]3O)ccc12` [compound 139] are 47.2%, 41.8% and 42.1%.
For the compound `O=c1oc2cc(O[C@@H]3O[C@H](CO)[C@@H](O)[C@H](O)[C@H]3O)ccc2c(O)c1OCc1ccccc1` [compound 47], the inhibition in vivo at 50 mg/kg in experiment [1] stood at 59.1%; in experiment [2], 52.1%; in experiment [3], 51.9%.
In the case of `CCCCCCCCCCCCOc1c(O)c2ccc(O[C@H]3O[C@H](CO)[C@@H](O)[C@H](O)[C@@H]3O)cc2oc1=O` [compound 66], the inhibition in vivo at 50 mg/kg in experiment [1] was 54.3%; in experiment [2], 49.3%; in experiment [3] it was 51.4%.
With `CCCCCCCCCCOc1c(O)c2ccc(O[C@H]3O[C@H](CO)[C@@H](O)[C@H](O)[C@@H]3O)cc2oc1=O` [compound 65], the inhibition in vivo at 50 mg/kg was determined as 49.3% in experiment [1], 52.1% in experiment [2] and 50.3% in experiment [3].
In the same order, the values of `C=COc1c(O)c2ccc(O[C@@H]3O[C@H](CO)[C@H](O)[C@H](O)[C@H]3O)cc2oc1=O` [compound 93] are 69.7%, 55.2% and 56.4%.
For `CCCCCCCCCCOc1c(O)c(=O)oc2cc(O[C@H]3O[C@H](CO)[C@@H](O)[C@H](O)[C@@H]3O)ccc12` [compound 133], in that order: 43.2%, 42.3% and 41.4%.
